Test results reported in patent US11207432B2, “Substituted organofluoroborates as imaging agents” (THE UNIVERSITY OF BRITISH COLUMBIA, priority 2013, dated 2021).

How the values were obtained:
[1] = Solvolytic defluoridation of fluoridated organotrifluoroborates by 19F-NMR; assay type: physicochemical; conditions: 200 mM phosphate buffer pH 7.5, 19F NMR; for k(solvolysis): pseudo-first-order fit; for half-life: solvolytic defluoridation, read-out: half-life, t1/2
Method: The following is are representative examples of testing of solvolytic defluoridation of fluoridated organoborates as shown in FIG. 1A to FIG. 1FF and Table 1. Solutions of the fluoridated organotrifluoroborates were made by dissolving 30 mg of the fluoridated organotrifluoroborate into 1 mL of 20% ethanol/acetonitrile.
As the fluoridated organotrifluoroborate salts were often contaminated with a significant amount of free fluoride, a silica column was used to remove the free fluoride from the organotrifluoroborate solution. After loading the crude reaction onto the silica column, the fractions containing the desired organotrifluoroborate were eluted and combined to form a combined solution. In view of the strong stability of the fluoridated organotrifluoroborate in organic solvent, 20% of the combined solution was stored in an NMR tube and this sample served as the “zero” minute time point. A purified organotrifluoroborate salt was isolated from the remaining portion of the combined solution (remaining 80% of the combined solution) by removing the organic solvent from the combined solution by vacuum. Removal of the organic solvent from the combined solution gave the purified fluoridated alkylbornate salt in the form of a white solid. The dry and purified fluoridated organotrifluoroborate salt was re-dissolved into 3 mL of 200 mM phosphate buffer. Solvolytic defluoridation started immediately upon dissolution of the fluoridated organotrifluoroborate salt into phosphate buffer, and accordingly, the time was recorded at the moment of dissolution. The progress of solvolytic defluoridation of the fluoridated organotrifluoroborate salt was monitored using ^19F NMR spectroscopy. General principles, methods and background relating to the use of ^19F NMR spectroscopy for monitoring defluoridation are known, and may be found in, for example, Ting et al. (2008, J. Org. Chem. 73; 4662-70; Harwig et al. (2008) Tetrahedron Letters 49:3152-56; and Ting et al. (2008) Journal of Fluorine Chemistry 129:349-58. For each time point, solvolytic defluoridation data was collected using a 300 MHz ^19F NMR spectrometer (Bruker). ^19F NMR spectroscopic tracers for the fluoridated organotrifluoroborate salt at different times are shown in FIG. 1A. Use of ^19F-NMR to measure solvolytic defluoridation provides a useful model for measuring solvolytic 18F-defluoridation because if one F is lost, all are lost. Moreover, it is understood that the kinetic isotope effect in terms of B—F bond solvolysis is negligible. […] The degree of solvolytic defluoridation of the fluoridated organotrifluoroborate salt was plotted as a function of time, for example, as shown in FIG. 1B for Compound 6 of Table 1. ^19F NMR spectroscopic tracers for the fluoridated organotrifluoroborate salts of compounds listed in Table 1 at different times are shown in FIGS. 1A, 1C, 1E, 1G, 1I, 1K, 1M, 1O, 1Q, 1S, 1U, 1W, 1Y, 1AA, 1CC, and 1EE, and the degree of solvolytic defluoridation of the compounds as a function of time is shown in FIGS. 1B, 1D, 1F, 1H, 1J, 1L, 1N, 1P, 1R, 1T, 1V, 1X, 1ZZ, 1BB, 1DD, and 1FF.
The time curves shown in FIGS. 1B and 1D were fitted and a rate constant, ksolvolysis, for each time curve was calculated. As a measure of the stability of the fluoridated organoborate to solvolytic defluoridation, pkB—F values were calculated using the equation pkB—F=−log(ksolvolysis). In addition to pkB—F values, observed solvolytic defluoridation half-life, t1/2, values and rate constants, ksolvolysis, for a number of different fluoridated organoborates are listed in Table 1.

[2] = pKa of the carboxylic acid carrying the same moiety as the RBF3 compound; cited from earlier work
[3] = Stability of Rhodamine-BF3 conjugates in plasma by TLC; assay type: in vitro ADME, mice; conditions: tested as Rhodamine B conjugate, 37° C., 2 hours, fluorescence analysis
Method: The symbols A, B, C represent Rhodamine-ArBF3, Rhodamine-PyrBF3, and […] of Table 1, respectively. The subscript numbers 1, 2, 3 represent different test conditions: Plasma 1, Plasma 2 and PBS buffer (Plasma 1 and Plasma 2 were acquired from different mice).
The following is a representative example of testing of solvolytic defluoridation of a fluoridated organotrifluoroborate as shown in FIG. 3. 2 nmol Rhodamine-BF3 was added into 100 μL plasma, and then incubated at 37° C. After 2 hours, 200 μL acetonitrile (ACN) was added to precipitate the protein from the solution. The crude was filtered with 40 μm filter paper, and then a reddish purple solution was achieved. 1 μL of this solution was loaded on the TLC plate. The TLC plate was developed by 15% methanol/DCM. The TLC chromatograms for an aryltrifluoroborate (Rhodamine-ArBF3), Rhodamine-PyrBF3, and a quaternary ammoniomethyltrifluoroborate (Rhodamine-Compound 10 of Table 1) are shown as FIG. 3.
In the TLC chromatograms, Rhodamine B was conjugated with the trifluoroborate to trace the decomposition. The hydrolyzed product lost the negative charge, and therefore migrated much more rapidly than the precursor.

[4] = Stability of 18F-radiolabeled organotrifluoroborate in plasma by HPLC; assay type: in vitro ADME; conditions: 18F-labelled, 37° C., 150 mins, in vitro test n=3
Method: 1.1 mCi of ^18F-Compound 10 (^18F-ammoniomethyltrifluoroborate) was mixed with 100 μL of plasma to form a ^18F-Compound 10-plasma mixture, and then incubated at 37° C. for two hours. 200 uL of acetonitrile (ACN) was then added to the ^18F-Compound 10-plasma mixture to precipitate the protein from the mixture. The precipated protein portion was separated from the mixture by filtration with 40 μm filter paper, and the clear filtrate was injected into an HPLC for stability analysis. Chromatograms for independent HPLC tests of Rhodamine-Compound 10 of Table 1 at 0 minutes (A), 80 minutes (B), 150 minutes (C), 0 minutes (D), 150 minutes (E), and 150 minutes (F) are shown in FIG. 4A through FIG. 4F.

half-life [1]	decomposition in plasma by HPLC [4]	SMILES	pk (solvolysis) = −log k(solvolysis) [1]	pKa of Corresponding COOH [2]	k(solvolysis) [1]	decomposition (hydrolyzed product) on TLC after incubation in plasma [3]
–	–	O=C(c1ccccc1)[B-](F)(F)F [Compound 8, benzoytrifluoroborate]	4.0700	2.35	–	–
2500 h	–	F[B-](F)(F)C(Cl)Cl [Compound 11]	5.3372	1.29	4.6 × 10^−5 min − 1	–
11 h	–	F[B-](F)(F)CBr [Compound 4, bromomethyltrifluoroborate]	2.98	2.86	0.000768 min − 1	–
0.0383 to 0.05 h	–	CCCC[B-](F)(F)F [Compound 1, butyltrifluoroborate]	0.52	4.81	0.3 min − 1	–
47 h	–	C#CC[N+](C)(C[B-](F)(F)F)C[B-](F)(F)F [Compound 18]	3.61	–	0.000246 min − 1	–
5.77 h	–	C[N+](C)(CC(=O)O)C[B-](F)(F)F [Compound 17]	2.70	–	0.0020 min − 1	–
2.42 h	–	F[B-](F)(F)COCc1ccccc1 [Compound 3]	2.32	3.53	0.00476 min − 1	–
178 h	–	F[B-](F)(F)C[n+]1ccccc1 [Compound 14]	4.19	2.14	6.45 × 10^−5 min − 1	–
38.5 h	–	O=C(CCCCO)[B-](F)(F)F [Compound 5]	3.5249	2.5	0.000298 min − 1	–
367 h	almost no decomposition was observed	C#CC[N+](C)(C)C[B-](F)(F)F [Compound 10]	4.5036	1.83	3.14 × 10^−5 min − 1	almost no hydrolyzed product was detected
65.5 h	–	CC[NH+](CC)C[B-](F)(F)F [Compound 6]	3.7554	2.34	0.000175 min − 1	–
7670 h	–	C[S+](C[B-](F)(F)F)c1ccccc1 (stereo not shown) [Compound 12]	5.82	–	1.5 × 10^−5 min − 1	–
0.117 h	–	C=C[B-](F)(F)F [Compound 2, vinyltrifluoroborate]	1.01	4.25	0.099 min − 1	–
4.43 h	–	C[n+]1ccn(C[B-](F)(F)F)c1 [Compound 15]	2.59	–	0.00259 min − 1	–
172 h	–	COC(=O)C[N+](C)(C)C[B-](F)(F)F [Compound 16]	4.17	–	0.0000673 min − 1	–
